Source: patent US11466016B2, “Pharmaceutical compounds” (priority 2018, dated 2022)
Structures can show the parent of a compound that is named as a salt.

What follows are molecules tested against SHP2 (Homo sapiens (Human), UniProt Q06124) (assay: SHP2 Biochemical Assay (DiFMUP conversion, pIRS1 activating peptide)). Conditions: not given.
SHP2, sequence (Q06124 whole entry): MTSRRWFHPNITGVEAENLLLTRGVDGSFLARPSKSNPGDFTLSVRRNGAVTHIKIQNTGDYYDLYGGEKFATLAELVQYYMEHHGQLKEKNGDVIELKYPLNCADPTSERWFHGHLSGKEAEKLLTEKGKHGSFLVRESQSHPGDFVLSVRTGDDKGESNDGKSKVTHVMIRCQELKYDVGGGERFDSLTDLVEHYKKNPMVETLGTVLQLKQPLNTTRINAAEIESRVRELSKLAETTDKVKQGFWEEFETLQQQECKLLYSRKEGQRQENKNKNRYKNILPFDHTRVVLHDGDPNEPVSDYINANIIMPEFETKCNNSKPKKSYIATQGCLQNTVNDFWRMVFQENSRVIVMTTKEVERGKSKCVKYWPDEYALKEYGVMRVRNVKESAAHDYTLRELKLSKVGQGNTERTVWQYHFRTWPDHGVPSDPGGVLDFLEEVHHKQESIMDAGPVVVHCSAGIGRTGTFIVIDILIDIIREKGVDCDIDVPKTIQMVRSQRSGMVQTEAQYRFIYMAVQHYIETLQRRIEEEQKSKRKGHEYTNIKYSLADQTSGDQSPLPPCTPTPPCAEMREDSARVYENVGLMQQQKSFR

In order of rising IC50:
1. Cc1noc(Cn2cc3c(Cl)c(-c4c[nH]c5nc(N6[C@@H]7CC[C@H]6C[C@@H](N)C7)cnc45)ccc3n2)n1 [Example 69, endo-8-(7-{4-chloro-2-[(3-methyl-1,2,4-oxadiazol-5-yl)methyl]-2H-indazol-5-yl}-5H-pyrrolo[2,3-b]pyrazin-3-yl)-8-azabicyclo[3.2.1]octan-3-amine, hydrochloride salt]  6.8 nM
2. Cn1cc2c(Cl)c(-c3n[nH]c4nc(N5[C@@H]6CC[C@H]5[C@@H](F)[C@@H](N)C6)c(CO)nc34)ccc2n1 [Example 81, {6-[(1S,2S,3S,5R)-3-amino-2-fluoro-8-azabicyclo[3.2.1]octan-8-yl]-3-(4-chloro-2-methyl-2H-indazol-5-yl)-1H-pyrazolo[3,4-b]pyrazin-5-yl}methanol]  15 nM
3. Cn1cnc2ccc(-c3c[nH]c4nc(N5[C@@H]6CC[C@H]5[C@@H](F)[C@@H](N)C6)cnc34)c(Cl)c2c1=O [Example 77, 6-{3-[(1S,2S,3S,5R)-3-amino-2-fluoro-8-azabicyclo[3.2.1]octan-8-yl]-5H-pyrrolo[2,3-b]pyrazin-7-yl}-5-chloro-3-methyl-3,4-dihydroquinazolin-4-one]  18 nM
4. Cn1ccnc1Cn1cc2c(Cl)c(-c3c[nH]c4nc(N5[C@@H]6CC[C@H]5C[C@@H](N)C6)cnc34)ccc2n1 [Example 68, endo-8-(7-{4-chloro-2-[(1-methyl-1H-imidazol-2-yl)methyl]-2H-indazol-5-yl}-5H-pyrrolo[2,3-b]pyrazin-3-yl)-8-azabicyclo[3.2.1]octan-3-amine, trihydrochloride salt]  21 nM

`CN1Cc2c(ccc(-c3c[nH]c4nc(N5CC[C@H](N)[C@H](F)C5)cnc34)c2Cl)C1=O` [Example 72, 5-{3-[(3R,4S)-4-amino-3-fluoropiperidin-1-yl]-5H-pyrrolo[2,3-b]pyrazin-7-yl}-4-chloro-2-methyl-2,3-dihydro-1H-isoindol-1-one, hydrochloride salt] was tested, and the “SHP2 (percent at stated concentration)” value was 50%@0.30 uM.

Same assay, conditions: DiFMUP substrate, 0.25 μM pIRS1 peptide, 30 min pre-incubation; average where more than one data point; read-out: SHP2 (IC50)

In order of falling IC50:
1. Cn1c(=O)sc2ccc(-c3c[nH]c4nc(N5CC[C@H](N)[C@H](F)C5)cnc34)c(Cl)c21 [Example 76, 5-{3-[(3R,4S)-4-amino-3-fluoropiperidin-1-yl]-5H-pyrrolo[2,3-b]pyrazin-7-yl}-4-chloro-3-methyl-2,3-dihydro-1,3-benzothiazol-2-one, hydrochloride]  440 nM
2. Cc1nc2c(-c3ccc4nn(C)cc4c3Cl)n[nH]c2nc1N1CC[C@H](N)[C@H](F)C1 [Example 75, (3R,4S)-1-[3-(4-chloro-2-methyl-2H-indazol-5-yl)-5-methyl-1H-pyrazolo[3,4-b]pyrazin-6-yl]-3-fluoropiperidin-4-amine, hydrochloride]  130 nM
3. Cn1cnc2ccc(-c3c[nH]c4nc(N5CC[C@H](N)[C@H](F)C5)cnc34)c(Cl)c21 [Example 74, (3R,4S)-1-[7-(7-chloro-1-methyl-1H-1,3-benzodiazol-6-yl)-5H-pyrrolo[2,3-b]pyrazin-3-yl]-3-fluoropiperidin-4-amine]  89 nM
4. Cc1nc2c(-c3ccc4nn(C)cc4c3Cl)n[nH]c2nc1N1CCC2(CC1)CNC2 [Example 94, 7-[3-(4-Chloro-2-methyl-2H-indazol-5-yl)-5-methyl-1H-pyrazolo[3,4-b]pyrazin-6-yl]-2,7-diazaspiro[3.5]nonane]  70 nM
5. Cn1cc2c(Cl)c(-c3c[nH]c4nc(N5[C@H]6CC[C@@H]5[C@@H](F)[C@H](N)C6)cnc34)ccc2n1 [Example 67, (1R,2S,3R,5S)-8-[7-(4-chloro-2-methyl-2H-indazol-5-yl)-5H-pyrrolo[2,3-b]pyrazin-3-yl]-2-fluoro-8-azabicyclo[3.2.1]octan-3-amine]  57 nM
6. Cn1ccc2c(Cl)c(-c3c[nH]c4nc(N5CC[C@H](N)[C@H](F)C5)cnc34)ccc2c1=O [Example 71, 6-{3-[(3R,4S)-4-amino-3-fluoropiperidin-1-yl]-5H-pyrrolo[2,3-b]pyrazin-7-yl}-5-chloro-2-methyl-1,2-dihydroisoquinolin-1-one, hydrochloride salt]  55 nM
7. Cn1cc2c(Cl)c(-c3c[nH]c4nc(N5[C@@H]6CC[C@H]5[C@H](F)[C@@H](N)C6)cnc34)ccc2n1 [Example 65, (1S,2R,3S,5R)-8-[7-(4-chloro-2-methyl-2H-indazol-5-yl)-5H-pyrrolo[2,3-b]pyrazin-3-yl]-2-fluoro-8-azabicyclo[3.2.1]octan-3-amine]  37 nM
8. Cc1nc2c(-c3ccc4nn(C)cc4c3Cl)n[nH]c2nc1N1C2CCCC1CNC2 [Example 91, 4-Chloro-5-(6-{3,9-diazabicyclo[3.3.1]nonan-9-yl}-5-methyl-1H-pyrazolo[3,4-b]pyrazin-3-yl)-2-methyl-2H-indazole, hydrochloride salt]  22 nM
9. CCn1cc2c(Cl)c(-c3n[nH]c4nc(N5[C@H]6CC[C@@H]5[C@@H](F)[C@@H](N)C6)c(CO)nc34)ccc2n1 [Example 82, {6-[(1R,2S,3S,5S)-3-amino-2-fluoro-8-azabicyclo[3.2.1]octan-8-yl]-3-(4-chloro-2-ethyl-2H-indazol-5-yl)-1H-pyrazolo[3,4-b]pyrazin-5-yl}methanol]  12 nM
10. Cc1nc2c(-c3ccc4nn(C)cc4c3Cl)n[nH]c2nc1N1[C@H]2CC[C@@H]1[C@@H](F)[C@@H](N)C2 [Example 73, (1R,2S,3S,5S)-8-[3-(4-chloro-2-methyl-2H-indazol-5-yl)-5-methyl-1H-pyrazolo[3,4-b]pyrazin-6-yl]-2-fluoro-8-azabicyclo[3.2.1]octan-3-amine, hydrochloride salt]  9.8 nM
11. Cn1cc2c(Cl)c(-c3n[nH]c4nc(N5[C@H]6CC[C@@H]5[C@@H](F)[C@@H](N)C6)c(CO)nc34)ccc2n1 [Example 79, {6-[(1R,2S,3S,5S)-3-amino-2-fluoro-8-azabicyclo[3.2.1]octan-8-yl]-3-(4-chloro-2-methyl-2H-indazol-5-yl)-1H-pyrazolo[3,4-b]pyrazin-5-yl}methanol]  9.1 nM
12. Cn1ccc(Cn2cc3c(Cl)c(-c4c[nH]c5nc(N6[C@@H]7CC[C@H]6C[C@@H](N)C7)cnc45)ccc3n2)n1 [Example 70, endo-8-(7-{4-chloro-2-[(1-methyl-1H-pyrazol-3-yl)methyl]-2H-indazol-5-yl}-5H-pyrrolo[2,3-b]pyrazin-3-yl)-8-azabicyclo[3.2.1]octan-3-amine, trihydrochloride salt]  8.8 nM
13. Cn1nc2ccc(-c3n[nH]c4nc(N5[C@H]6CC[C@@H]5[C@@H](F)[C@@H](N)C6)c(CO)nc34)c(F)c2c1Cl [Example 83, {6-[(1R,2S,3S,5S)-3-amino-2-fluoro-8-azabicyclo[3.2.1]octan-8-yl]-3-(3-chloro-4-fluoro-2-methyl-2H-indazol-5-yl)-1H-pyrazolo[3,4-b]pyrazin-5-yl}methanol]  8.6 nM
14. CCn1cc2c(Cl)c(-c3n[nH]c4nc(N5[C@H]6CC[C@@H]5[C@@H](F)[C@@H](N)C6)c(C)nc34)ccc2n1 [Example 92, (1R,2S,3S,5S)-8-[3-(4-Chloro-2-ethyl-2H-indazol-5-yl)-5-methyl-1H-pyrazolo[3,4-b]pyrazin-6-yl]-2-fluoro-8-azabicyclo[3.2.1]octan-3-amine]  8.3 nM
15. Cn1nc2ccc(-c3n[nH]c4nc(N5[C@@H]6CC[C@H]5[C@@H](F)[C@@H](N)C6)c(CO)nc34)c(F)c2c1Cl [Example 87, {6-[(1S,2S,3S,5R)-3-amino-2-fluoro-8-azabicyclo[3.2.1]octan-8-yl]-3-(3-chloro-4-fluoro-2-methyl-2H-indazol-5-yl)-1H-pyrazolo[3,4-b]pyrazin-5-yl}methanol]  8 nM
16. Cn1nc2ccc(-c3n[nH]c4nc(N5[C@@H]6CC[C@H]5[C@@H](F)[C@@H](N)C6)c(CO)nc34)c(Cl)c2c1Cl [Example 85, {6-[(1S,2S,3S,5R)-3-amino-2-fluoro-8-azabicyclo[3.2.1]octan-8-yl]-3-(3,4-dichloro-2-methyl-2H-indazol-5-yl)-1H-pyrazolo[3,4-b]pyrazin-5-yl}methanol]  7.5 nM
17. COc1cnc2ccc(-c3n[nH]c4nc(N5[C@H]6CC[C@@H]5[C@@H](F)[C@@H](N)C6)c(CO)nc34)c(Cl)c2n1 [Example 84, {6-[(1R,2S,3S,5S)-3-amino-2-fluoro-8-azabicyclo[3.2.1]octan-8-yl]-3-(5-chloro-3-methoxyquinoxalin-6-yl)-1H-pyrazolo[3,4-b]pyrazin-5-yl}methanol]  7.4 nM
18. Cn1nc2ccc(-c3n[nH]c4nc(N5[C@@H]6CC[C@H]5CNC6)c(CO)nc34)c(Cl)c2c1Cl [Example 86, {6-[3,8-diazabicyclo[3.2.1]octan-8-yl]-3-(3,4-dichloro-2-methyl-2H-indazol-5-yl)-1H-pyrazolo[3,4-b]pyrazin-5-yl}methanol]  7.2 nM
19. Cn1nc2ccc(-c3n[nH]c4nc(N5[C@@H]6CC[C@H]5C[C@@H](N)C6)c(CO)nc34)c(Cl)c2c1Cl [Example 88, {6-[endo-3-amino-8-azabicyclo[3.2.1]octan-8-yl]-3-(3,4-dichloro-2-methyl-2H-indazol-5-yl)-1H-pyrazolo[3,4-b]pyrazin-5-yl}methanol]  7.1 nM
20. Cn1nc2ccc(-c3n[nH]c4nc(N5[C@H]6CC[C@@H]5[C@@H](F)[C@@H](N)C6)c(CO)nc34)c(Cl)c2c1Cl [Example 80, {6-[(1R,2S,3S,5S)-3-amino-2-fluoro-8-azabicyclo[3.2.1]octan-8-yl]-3-(3,4-dichloro-2-methyl-2H-indazol-5-yl)-1H-pyrazolo[3,4-b]pyrazin-5-yl}methanol]  5.2 nM
21. N[C@H]1C[C@H]2CC[C@@H](C1)N2c1cnc2c(-c3ccc4c(c3Cl)C(F)(F)C(=O)N4)c[nH]c2n1 [Example 66, 5-{3-[endo-3-amino-8-azabicyclo[3.2.1]octan-8-yl]-5H-pyrrolo[2,3-b]pyrazin-7-yl}-4-chloro-3,3-difluoro-2,3-dihydro-1H-indol-2-one, dihydrochloride salt]  4.4 nM
22. Cc1nc2c(-c3ccc4nn(C)c(Cl)c4c3Cl)n[nH]c2nc1N1[C@H]2CC[C@@H]1[C@@H](F)[C@@H](N)C2 [Example 93, (1R,2S,3S,5S)-8-[3-(3,4-Dichloro-2-methyl-2H-indazol-5-yl)-5-methyl-1H-pyrazolo[3,4-b]pyrazin-6-yl]-2-fluoro-8-azabicyclo[3.2.1]octan-3-amine]  3.6 nM
